Earlier results in patent publication US6797806B2, “Fragments of CR1 and their use” (AdProTech Limited, priority 1996, dated 2004).

Tests used:
[1] = in vivo
[2] = test system: myeloperoxidase activity (an indicator of neutrophil accumulation); details: rat
[3] = in vivo; remark: listed apart in the source
[4] = in vivo; remark: listed apart in the source
[5] = systemic inhibition of CA over 6 days

## sCR1: soluble CR1 construct, complement inhibitor, molecular weight 245 kilodaltons
[1]
  survival rates following transplantation: extended survival rates
[2]
  myeloperoxidase activity following traumatic injury: reduce myeloperoxidase activity
[3]
  post-ischemic myocardial inflammation and necrosis: suppressed
[4]
  activity in a reversed passive Arthus reaction: demonstrated in vivo activity
[5]
  CNS inflammation, demyelination and deposition of complement components: blocked
  clinical score: improvements in clinical score
